Source: PubChem BioAssay (NCI)
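Growth conditions: 96-well plates. Treatment: test compound, 48 hours, 5 concentrations. Analysis: linear interpolation between bracketing concentrations; unreached endpoints set to highest concentration. At the TGI there is no net growth.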

What was measured:
Assay in all cases: NCI-60 cell line screen, 48 h
[1] = tested on: SNB-19 CNS
[2] = tested on: HT29 colon
[3] = tested on: A549 NSCLC
[4] = tested on: NCI-H460 lung
[5] = tested on: U251 CNS
[6] = tested on: OVCAR-4 ovarian
[7] = tested on: MOLT-4 leukemia
[8] = tested on: MDA-MB-231 breast
[9] = tested on: HCC-2998 colon
[10] = tested on: SK-MEL-28 melanoma
[11] = tested on: MDA-N
[12] = tested on: MALME-3M melanoma
[13] = tested on: SN12C renal
[14] = tested on: MCF7 breast
[15] = tested on: KM12 colon
[16] = tested on: DU-145 prostate
[17] = tested on: LOX IMVI melanoma
[18] = tested on: EKVX NSCLC
[19] = tested on: NCI-H226 lung
[20] = tested on: PC-3 prostate
[21] = tested on: ACHN renal
[22] = tested on: TK-10 renal
[23] = tested on: HL-60(TB) leukemia
[24] = tested on: HCT-15 colon
[25] = tested on: HS 578T breast
[26] = tested on: RXF 393 renal
[27] = tested on: OVCAR-3 ovarian
[28] = tested on: SK-OV-3 ovarian
[29] = tested on: SF-295 CNS
[30] = tested on: UO-31 renal
[31] = tested on: SK-MEL-2 melanoma
[32] = tested on: SW-620 colon
[33] = tested on: HCT-116 colon
[34] = tested on: NCI-H23 lung
[35] = tested on: COLO 205 colon
[36] = tested on: UACC-62 melanoma
[37] = tested on: T-47D breast
[38] = tested on: RPMI-8226 leukemia
[39] = tested on: SF-539 CNS
[40] = tested on: SNB-75 CNS
[41] = tested on: IGROV1 ovarian
[42] = tested on: HOP-62 NSCLC
[43] = tested on: SR leukemia
[44] = tested on: OVCAR-5 ovarian
[45] = tested on: CCRF-CEM leukemia
[46] = tested on: A498 renal
[47] = tested on: OVCAR-8 ovarian
[48] = tested on: K-562 leukemia
[49] = tested on: NCI-H522 lung
[50] = tested on: SK-MEL-5 melanoma
[51] = tested on: CAKI-1 renal
[52] = tested on: SF-268 CNS
[53] = tested on: M14 melanoma
[54] = tested on: MDA-MB-435
[55] = tested on: NCI/ADR-RES ovarian

Measured: TGI

CON(C)c1nc(N(C)OC)nc(N(C)OC)n1
> 10 µM: [1] | [2] | [3] | [4] | [5] | [6] | [7] | [8] | [9] | [10] | [11] | [12] | [13] | [14] | [15] | [16] | [17] | [18] | [19] | [20] | [21] | [22] | [23] | [24] | [25] | [26] | [27] | [28] | [29] | [30] | [31] | [32] | [33] | [34] | [35] | [36] | [37] | [38] | [39] | [40] | [41] | [42] | [43] | [44] | [45] | [46] | [47] | [48] | [49] | [50] | [51] | [52] | [53] | [54] | [55]
